The target of this assay is T1, human liver glycogen phosphorylase a (HLGPa) (Homo sapiens, UniProt P06737).
T1 construct: creating a full-length cDNA fused at the 5′ end to codons for methionine-glycine-alanine-histidine; 6xHis tag (leader Met-Gly-Ala-His6-Gly-Gly) (N); made in house; host or cells: E. coli (bacterial expression plasmid pTXK1007LTev)
T1 sequence (P06737 2-847 limits assumed): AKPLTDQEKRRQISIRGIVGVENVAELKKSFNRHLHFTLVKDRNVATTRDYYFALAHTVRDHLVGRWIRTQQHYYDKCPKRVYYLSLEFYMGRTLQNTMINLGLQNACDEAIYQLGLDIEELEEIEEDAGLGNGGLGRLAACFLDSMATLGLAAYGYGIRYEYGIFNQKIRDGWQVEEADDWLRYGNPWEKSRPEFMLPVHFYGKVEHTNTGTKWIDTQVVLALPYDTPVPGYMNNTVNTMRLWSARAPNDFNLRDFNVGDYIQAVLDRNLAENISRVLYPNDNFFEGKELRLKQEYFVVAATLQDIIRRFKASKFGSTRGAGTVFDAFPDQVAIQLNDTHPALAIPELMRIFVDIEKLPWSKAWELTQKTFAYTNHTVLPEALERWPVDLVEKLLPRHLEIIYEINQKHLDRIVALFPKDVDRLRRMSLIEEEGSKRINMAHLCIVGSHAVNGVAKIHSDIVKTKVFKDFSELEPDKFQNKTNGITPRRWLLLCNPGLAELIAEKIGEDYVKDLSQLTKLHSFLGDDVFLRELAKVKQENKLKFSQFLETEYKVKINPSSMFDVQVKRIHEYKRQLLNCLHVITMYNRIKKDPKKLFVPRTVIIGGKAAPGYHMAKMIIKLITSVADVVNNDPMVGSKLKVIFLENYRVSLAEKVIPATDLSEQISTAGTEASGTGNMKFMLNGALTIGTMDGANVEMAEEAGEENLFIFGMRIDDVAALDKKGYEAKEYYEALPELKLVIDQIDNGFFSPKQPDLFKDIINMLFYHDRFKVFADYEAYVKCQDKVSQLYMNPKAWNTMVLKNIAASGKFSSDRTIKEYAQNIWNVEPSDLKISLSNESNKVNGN
The experiment in a line: Human liver glycogen phosphorylase a enzymatic activity assay (coupled, fluorescent resorufin readout, with and without 10 mM glucose). To be noted: human liver glycogen phosphorylase a enzymatic activity assay. In kind it is biochemical.

IC50 data for 14 molecules are collected here from patent publication US20070249670A1, “Glycogen Phosphorylase Inhibitor Compounds and Pharmaceutical Compositions Thereof” (SMITHKLINE BEECHAM CORPORATION, priority 2004, published 2007).

SMILES strings stand for the structures.

As to `O=C(Nc1cc(Cl)ccc1C(=O)O)Nc1c(Cl)cccc1Cl` [Example 165, 4-Chloro-2-({[(2,6-dichlorophenyl)amino]carbonyl}amino)benzoic acid], the concentration for half-maximal inhibition (IC50) – broadly, the midpoint of a concentration-inhibition curve – stood at 15.1 µM. `Cc1cccc(C)c1NC(=O)Nc1cc(Cl)ccc1C(=O)O` [Example 166] came in with a concentration for half-maximal inhibition (IC50) of 8.64 µM. To `Cc1cccc(C)c1NC(=O)Nc1cc(Cl)ccc1C(=O)N[C@H](C(=O)O)C1CCCCC1` [Example 167, (2S)-({[4-Chloro-2-({[(2,6-dimethylphenyl)amino]carbonyl}amino)phenyl]carbonyl}amino)(cyclohexyl)-ethanoic acid] belongs 0.39 µM.

In turn, `O=C(Nc1cc(Cl)ccc1C(=O)N[C@H](C(=O)O)C1CCCCC1)Nc1c(Cl)cccc1Cl` [Example 168, (2S)-({[4-Chloro-2-({[(2,6-dichlorophenyl)amino]carbonyl}amino)phenyl]carbonyl}amino)(cyclohexyl)-ethanoic acid] came in with an IC50 of 0.2 µM. The figure for `Cc1ccc(NC(=O)Nc2c(C)cccc2C)c(C(=O)N[C@H](C(=O)O)C2CCCCC2)c1` [Example 169, (2S)Cyclohexyl({[2({[(2,6dimethylphenyl)amino]carbonyl}amino)-5-methylphenyl]carbonyl}amino)ethanoic acid] is 0.68 µM. To `Cc1cccc(C)c1NC(=O)Nc1cc(Cl)ccc1C(=O)NCC(=O)O` [Example 170, N{[4chloro2({[(2,6dimethylphenyl)amino]carbonyl}amino)phenyl]carbonyl}glycine] belongs 2.91 µM; to `O=C(Nc1cc(Cl)ccc1C(=O)N[C@H](C(=O)O)C1CCCCC1)Nc1c(Cl)cc(Cl)cc1Cl` [Example 171, (2S)-({[4-Chloro-2-({[(2,4,6-trichlorophenyl)amino]carbonyl}amino)phenyl]carbonyl}amino)(cyclohexyl)-ethanoic acid], 0.33 µM; to `Cc1cccc(Cl)c1NC(=O)Nc1cc(Cl)ccc1C(=O)N[C@H](C(=O)O)C1CCCCC1` [Example 172, (2S)-({[4-Chloro-2-({[(2-chloro-6-methylphenyl)amino]carbonyl}-amino)phenyl]carbonyl}amino)(cyclohexyl)ethanoic acid], 0.18 µM. To `Cc1cccc(C)c1NC(=O)Nc1cc(Br)ccc1C(=O)N[C@H](C(=O)O)C1CCCCC1` [Example 173, (2S)-({[4-Bromo-2-({[(2,6-dimethylphenyl)amino]carbonyl}amino)phenyl]carbonyl}amino)(cyclohexyl)-ethanoic acid] belongs 0.31 µM.

`Cc1cccc(C)c1NC(=O)Nc1cc(Cl)ccc1C(=O)N[C@@H](CC(=O)O)C(=O)O` [Example 174, N-{[4-Chloro-2-({[(2,6-dimethylphenyl)amino]carbonyl}amino)phenyl]carbonyl}-L-aspartic acid] gave an IC50 of 0.77 µM.

`Cc1cccc(C)c1NC(=O)Nc1cc(-c2ccccc2)ccc1C(=O)N[C@H](C(=O)O)C1CCCCC1` [Example 175, (2S)-Cyclohexyl({[3-({[(2,6-dimethylphenyl)amino]carbonyl}amino)-4-biphenylyl]carbonyl}amino)ethanoic acid] showed an IC50 of 0.163 µM. The figure for `Cc1ccc(C(=O)N[C@H](C(=O)O)C2CCCCC2)c(NC(=O)Nc2c(C)cccc2C)c1` [Example 176, (2S)-cyclohexyl({[2-({[(2,6-dimethylphenyl)amino]carbonyl}amino)-4-methylphenyl]carbonyl}amino)ethanoic acid] is 0.75 µM; for `O=C(Nc1cc(Cl)c(Cl)cc1C(=O)N[C@H](C(=O)O)C1CCCCC1)Nc1c(Cl)cccc1Cl` [Example 177, (2S)-Cyclohexyl({[4,5-dichloro-2-({[(2,6-dichlorophenyl)amino]-carbonyl}amino)phenyl]carbonyl}amino)ethanoic acid] it is 0.1 µM; for `Cc1cccc(C)c1NC(=O)Nc1cc(C(F)(F)F)ccc1C(=O)N[C@H](C(=O)O)C1CCCCC1` [Example 178, (2S)-cyclohexyl({[2-({[(2,6-dimethylphenyl)amino]carbonyl}amino)-4-(trifluoromethyl)phenyl]carbonyl}amino)ethanoic acid] it is 2.33 µM.
